The values below come from patent US20230234991A1, “SELF-ASSEMBLED PEPTIDE NANORODS AND USES THEREOF” (TRANSFERT PLUS, SOCIÉTÉ EN COMMANDITE, priority 2020, published 2023).

“Also recorded” adds a separate entry of the source.

One assay addresses T1, TLR2 (Mus musculus, UniProt Q9QUN7).
T1 construct: host or cells: HEK293 (HEK-Blue mTLR2)
Briefly: TLR-2 stimulation, SEAP activity in HEK-Blue mTLR2 cells. Format: cell-based. The method, then: TLR-2 stimulation. HEK293 cells stably co-transfected with mTLR2 and SEAP (HEK-Blue mTLR2 cells, InvivoGen) were cultivated in Dulbecco's Modified Eagle's Medium supplemented with 4.5 g/I glucose, 10% (v/v) fetal bovine serum, 100 U/ml penicillin, […], […], 2 mM L-glutamine. At 50-80% confluency, cells were seeded in Hek-Blue detection medium (InvivoGen) at a density of 50,000 cells/well in a 96-well plate containing NRs and controls. After 16 h incubation at 37° C. in 5% CO2, absorbance was monitored at 630 nm.

For assay [1], the system named is influenza virus A/PuertoRico/8/34. On the set-up: species or system BALB/c mice. The settings on record: mouse, in vivo.
The next assay relates to M2e. On the set-up: species or system BALB/c mice. The following applies: mouse, in vivo, sc.

T1 sequence (Q9QUN7 25-784): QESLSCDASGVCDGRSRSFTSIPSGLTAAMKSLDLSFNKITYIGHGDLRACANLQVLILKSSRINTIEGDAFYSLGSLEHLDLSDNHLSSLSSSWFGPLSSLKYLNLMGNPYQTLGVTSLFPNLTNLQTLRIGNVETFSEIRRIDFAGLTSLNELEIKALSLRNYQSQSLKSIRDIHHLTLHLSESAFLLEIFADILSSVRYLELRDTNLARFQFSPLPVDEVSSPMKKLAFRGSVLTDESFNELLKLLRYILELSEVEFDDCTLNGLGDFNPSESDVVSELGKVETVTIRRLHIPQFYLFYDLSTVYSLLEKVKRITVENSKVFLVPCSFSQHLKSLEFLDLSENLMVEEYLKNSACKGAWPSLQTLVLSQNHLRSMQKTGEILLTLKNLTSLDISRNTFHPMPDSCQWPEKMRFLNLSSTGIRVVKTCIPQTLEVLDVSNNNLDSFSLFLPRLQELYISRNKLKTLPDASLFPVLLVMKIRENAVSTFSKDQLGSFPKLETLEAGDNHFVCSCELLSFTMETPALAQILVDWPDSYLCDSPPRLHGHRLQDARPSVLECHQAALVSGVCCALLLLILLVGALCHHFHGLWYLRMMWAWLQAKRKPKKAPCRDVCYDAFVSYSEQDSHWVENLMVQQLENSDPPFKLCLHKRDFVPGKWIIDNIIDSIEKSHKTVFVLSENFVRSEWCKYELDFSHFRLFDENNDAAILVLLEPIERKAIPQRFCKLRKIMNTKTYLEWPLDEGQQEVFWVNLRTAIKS

As for SLLTEVETPIRNEWGSRSNGSSD [Peptide M2e], the SEAP activity result at TLR2 was “no activity was measured”. Besides, the mortality in assay [1] came to 100%. Besides, the “M2e-specific antibody response (IgG)” value in the assay on M2e is “did not raise any significant level of epitope-specific IgG; also recorded: very low antibody response; also recorded: significant antibody titer”.

The term mortality denotes the percentage killed. Low values mean a weak lethal effect, high ones a strong lethal effect.
